Source: patent USRE32935E, “Non-toxic organotin stabilizers for vinyl chloride polymers” (M&T Chemicals, Inc., priority 1985, dated 1989)
Like-named read-outs stand apart in the source and are kept apart here.

Assays:
[1] = system: rats; details: force-feeding, table of Neumann; cited from earlier work
[2] = extraction of tin from blow molded vinyl chloride polymer bottles; assay type: physicochemical; details: 49° C
Procedure: A number of 16 ounce (475 cc) capacity cylindrical bottles were prepared by blow molding using the following formulation: […]
The three stabilizers evaluated were n-octyltin-S,S',S"-tri(isooctyl mercaptoacetate), di-n-octyltin-S,S'-bis(isooctyl mercaptoacetate) and a mixture containing equal parts by weight of these two compounds.
The bottles were filled with the desired extractant and then placed in an oven maintained at a temperature of 49° C. for the time periods specified in the following table. A portion of the contents of the bottle was then analyzed to determine the concentration of tin.

[3] = compared with di- and trioctyltin chlorides, cited from earlier work
[4] = system: albino rats; test: acute oral median lethal dose in young male albino rats; assay type: in vivo, rat
Procedure: Young albino rats were used as the test animals. All animals were kept under observation for five days prior to experimental use, during which period they were checked for general physical health and suitability as test animals. The animals were housed in stock cages and were permitted a standard laboratory diet plus water ad libitum, except during the 16-hour period immediately prior to oral intubation, when food was withheld.
Selected groups of four male albino rats each were administered the undiluted test material at dose levels of 900, 1350, 2,025 and 3,038 mg. per kilogram of body weight. All doses were administered directly into the stomachs of the rats using a hypodermic syringe equipped with a ball-tipped intubating needle.
After oral administration of the test material, the rats were housed individually in suspended, wire-mesh cages and observed for the following 14 days. A necropsy was conducted on any animal which died during the study and on all animals sacrificed at the end of the 14-day observation period.
The acute oral median lethal dose (LD50) was calculated using the techniques of Weil, Thompson and Thompson and Weil as reported in the following references: […]

[5] = migration from milled/pressed polyvinyl chloride sheet into extractants (colorimetric tin analysis); assay type: physicochemical; details: 10 days, 40° C; distilled water, 3% acetic acid, peanut oil, 10% ethanol; 1.5 parts stabilizer
Procedure: A mixture containing 100 parts of a commercially available vinyl chloride homopolymer(Solvic 223), 0.02 part of a half glycol ester -half calcium soap of montanic acid (available as Hoechst Wax OP) together with 1.5 parts of mono-n-octyltin-S,S',S"-tris(isooctylmercaptoacetate) was blended by placing the components on a 2-roll mill wherein the roll temperature was between 160° and 170° C. During the three minute milling period a continuous sheet formed around one of the rollers and was removed. The sheet measured 1.3 m.m. in thickness and about 300 cm.^2 in area. The sheet was pressed at a temperature of 170° C. to obtain a thickness of 1.2 m.m. The total pressing time, including a two minute preheating period, was five minutes. Square samples measurng 30 cm.^2 in total surface area were immersed in one of the extractants for 10 days, during which time the temperature of the extractant was maintained at 40° C. The extractants employed were distilled water, a 3% aqueous solution of acetic acid, peanut oil and a 10% by weight aqueous solution of ethanol. […] The quantity of peanut oil was 30 c.c.
The migration of stabilizer from the polyvinyl chloride sample into the extractant was determined by measuring the concentration of tin in the extractant using colormetric analysis of the tin - pyrocatechol violet complex. […]

[6] = relative acute toxicity of the isooctylmercaptoacetate derivatives; assay type: in vivo
Source text: This is contrary to the generally accepted, although inaccurate, generalization that a monoalkyltin compound is less toxic than the corresponding di- and trialkyltin compounds. […] This finding directly contradicts data concerning the relative toxicities of mono-, di- and triorganotin compounds that were published prior to March, 1973, the filing date of Applicant's earliest application disclosing the present stabilizer compositions.

[7] = system: beagle dogs; test: 13 week feeding study in beagle dogs; assay type: in vivo, dog
Procedure: A second feeding study was conducted for a period of 13 weeks using beagle dogs to determine the maximum concentration of the mono-n-octyltin mercaptoacetic acid esters of this invention which can be present in the food of these animals without causing any observable toxicological effect. This concentration level is referred to as the "no-effect level" by the United States Food and Drug Administration. A stabilizer of this invention mono-n-octyltin S,S',S"-tris(isooctylmercaptoacetate) was added to the food consumed by the dogs in amounts of 0, 100, 300 and 1,000 parts per million. […] This level of toxicity is considered to be unexpectedly low for an organotin compound.
The criteria employed to determine the absence of toxicological effects included general appearance, health, growth and food intake; blood analyses for enzyme activity and serum protein; kidney damage by urine analysis; change in weight of internal organs and presence of the tin compound in the kidneys, bones, brain, liver and blood.

[8] = prior art statements; cited from earlier work
[9] = 3% Acetic Acid (aqueous), 24 hours
[10] = 3% Acetic Acid (aqueous), 48 hours
[11] = 3% Acetic Acid (aqueous), 72 hours

Compound	LD50 (lethal dose for 1/2 the population) [1]	Tin Content [2, 9] [ppm]	Tin Content [2, 10] [ppm]	Tin Content [2, 11] [ppm]	Tin Content ([2]; 8% Ethanol (aqueous), 24 hours) [ppm]	Tin Content ([2]; 50% Ethanol, 24 hours) [ppm]	Tin Content ([2]; 50% Ethanol, 48 hours) [ppm]	Tin Content ([2]; 50% Ethanol, 72 hours) [ppm]	Tin Content ([2]; Distilled Water, 72 hours) [ppm]	Tin Content ([2]; Distilled Water, 96 hours) [ppm]	Tin Content ([2]; Distilled Water, 120 hours) [ppm]	Tin Content ([2]; Heptane, 6 hours) [ppm]	Tin Content ([2]; Heptane, 8 hours) [ppm]	Tin Content ([2]; Heptane, 10 hours) [ppm]	other results
di-n-octyltin maleate	4,500 mg per kilogram of body weight														
CCCCCCC[CH2][Sn]([CH2]CCCCCCC)([S]CC(=O)OCCCCCC(C)C)[S]CC(=O)OCCCCCC(C)C [B, di-n-octyltin-S,S'--bis(isooctyl mercaptoacetate), reference compound]	1975 mg per kilogram of body weight	0.00	0.00	0.00	0.00	0.03	0.05	0.03	0.00	0.00	0.00	0.03	0.02	0.02	
CCCCCCC[CH2][Sn]([Cl])([Cl])[Cl] [monooctyltin trichloride]															acute oral toxicity (relative, in words) [3]: greater than the toxicity of either dioctyltin dichloride or trioctyltin chloride; acute oral toxicity (relative, in words) ([3]; listed as mono-n-octyltin trichloride): significantly more severe than the corresponding di- or tri-n-octyltin chlorides
CCCCCCC[CH2][Sn]([S]CC(=O)OCCCCCC(C)C)([S]CC(=O)OCCCCCC(C)C)[S]CC(=O)OCCCCCC(C)C [A, mono-n-octyltin-S,S',S"--tris(isooctyl mercaptoacetate)]		0.02	0.03	0.02	0.00	0.01	0.02	0.02	0.00	0.00	0.00	0.02	0.03	0.03	acute oral median lethal dose (LD50) ([4]; male albino rats, oral intubation, undiluted, 14 days observation): 2.48 g. per kilogram of weight; LD50 relative to other conventional organotin stabilizers (in words) ([4]; vs other conventional organotin compounds employed as non-toxic stabilizers): considerably higher than the values for other conventional organotin compounds; amount of stabilizer extracted [5]: ≤ 0.05 mg. per square decimeter; relative acute toxicity (in words) ([6]; isooctylmercaptoacetate derivatives, mono- vs di- and tri-n-octyltin): the least toxic; toxicity relative to corresponding di-n-octyltin compound (in words) ([6]; vs di-n-octyltin compound of Gloskey patent): less toxic than the corresponding di-n-octyltin compound; no-effect level ([7]; beagle dogs, 13 weeks, in food): 300 parts per million; no effect level (in words) ([7]; long term feeding studies): sufficiently low
[Cl][Sn][Cl] [stannous chloride]															toxicity (in words) [8]: relatively little, if any, toxicity
bis(tri-n-octyltin) sulfate	greater than 6,000 mg per kilogram of body weight														
